Laboratory results taken from patent US9309250B2, “Substituted pyrrolo[2,3-b]pyrazines as ATR kinase inhibitors” (Vertex Pharmaceuticals Incorporated, priority 2011, dated 2016).

What follows are molecules tested against T1, full-length ATR (Homo sapiens, UniProt Q13535) (assay: ATR Inhibition Assay (radioactive-phosphate incorporation)). Settings: Ki(app); 5 nM full-length ATR, 10 μM ATP, 800 μM target peptide, 25° C.
T1 construct: Assays were carried out at 25° C. in the presence of 5 nM full-length ATR
T1 sequence (Q13535 whole entry): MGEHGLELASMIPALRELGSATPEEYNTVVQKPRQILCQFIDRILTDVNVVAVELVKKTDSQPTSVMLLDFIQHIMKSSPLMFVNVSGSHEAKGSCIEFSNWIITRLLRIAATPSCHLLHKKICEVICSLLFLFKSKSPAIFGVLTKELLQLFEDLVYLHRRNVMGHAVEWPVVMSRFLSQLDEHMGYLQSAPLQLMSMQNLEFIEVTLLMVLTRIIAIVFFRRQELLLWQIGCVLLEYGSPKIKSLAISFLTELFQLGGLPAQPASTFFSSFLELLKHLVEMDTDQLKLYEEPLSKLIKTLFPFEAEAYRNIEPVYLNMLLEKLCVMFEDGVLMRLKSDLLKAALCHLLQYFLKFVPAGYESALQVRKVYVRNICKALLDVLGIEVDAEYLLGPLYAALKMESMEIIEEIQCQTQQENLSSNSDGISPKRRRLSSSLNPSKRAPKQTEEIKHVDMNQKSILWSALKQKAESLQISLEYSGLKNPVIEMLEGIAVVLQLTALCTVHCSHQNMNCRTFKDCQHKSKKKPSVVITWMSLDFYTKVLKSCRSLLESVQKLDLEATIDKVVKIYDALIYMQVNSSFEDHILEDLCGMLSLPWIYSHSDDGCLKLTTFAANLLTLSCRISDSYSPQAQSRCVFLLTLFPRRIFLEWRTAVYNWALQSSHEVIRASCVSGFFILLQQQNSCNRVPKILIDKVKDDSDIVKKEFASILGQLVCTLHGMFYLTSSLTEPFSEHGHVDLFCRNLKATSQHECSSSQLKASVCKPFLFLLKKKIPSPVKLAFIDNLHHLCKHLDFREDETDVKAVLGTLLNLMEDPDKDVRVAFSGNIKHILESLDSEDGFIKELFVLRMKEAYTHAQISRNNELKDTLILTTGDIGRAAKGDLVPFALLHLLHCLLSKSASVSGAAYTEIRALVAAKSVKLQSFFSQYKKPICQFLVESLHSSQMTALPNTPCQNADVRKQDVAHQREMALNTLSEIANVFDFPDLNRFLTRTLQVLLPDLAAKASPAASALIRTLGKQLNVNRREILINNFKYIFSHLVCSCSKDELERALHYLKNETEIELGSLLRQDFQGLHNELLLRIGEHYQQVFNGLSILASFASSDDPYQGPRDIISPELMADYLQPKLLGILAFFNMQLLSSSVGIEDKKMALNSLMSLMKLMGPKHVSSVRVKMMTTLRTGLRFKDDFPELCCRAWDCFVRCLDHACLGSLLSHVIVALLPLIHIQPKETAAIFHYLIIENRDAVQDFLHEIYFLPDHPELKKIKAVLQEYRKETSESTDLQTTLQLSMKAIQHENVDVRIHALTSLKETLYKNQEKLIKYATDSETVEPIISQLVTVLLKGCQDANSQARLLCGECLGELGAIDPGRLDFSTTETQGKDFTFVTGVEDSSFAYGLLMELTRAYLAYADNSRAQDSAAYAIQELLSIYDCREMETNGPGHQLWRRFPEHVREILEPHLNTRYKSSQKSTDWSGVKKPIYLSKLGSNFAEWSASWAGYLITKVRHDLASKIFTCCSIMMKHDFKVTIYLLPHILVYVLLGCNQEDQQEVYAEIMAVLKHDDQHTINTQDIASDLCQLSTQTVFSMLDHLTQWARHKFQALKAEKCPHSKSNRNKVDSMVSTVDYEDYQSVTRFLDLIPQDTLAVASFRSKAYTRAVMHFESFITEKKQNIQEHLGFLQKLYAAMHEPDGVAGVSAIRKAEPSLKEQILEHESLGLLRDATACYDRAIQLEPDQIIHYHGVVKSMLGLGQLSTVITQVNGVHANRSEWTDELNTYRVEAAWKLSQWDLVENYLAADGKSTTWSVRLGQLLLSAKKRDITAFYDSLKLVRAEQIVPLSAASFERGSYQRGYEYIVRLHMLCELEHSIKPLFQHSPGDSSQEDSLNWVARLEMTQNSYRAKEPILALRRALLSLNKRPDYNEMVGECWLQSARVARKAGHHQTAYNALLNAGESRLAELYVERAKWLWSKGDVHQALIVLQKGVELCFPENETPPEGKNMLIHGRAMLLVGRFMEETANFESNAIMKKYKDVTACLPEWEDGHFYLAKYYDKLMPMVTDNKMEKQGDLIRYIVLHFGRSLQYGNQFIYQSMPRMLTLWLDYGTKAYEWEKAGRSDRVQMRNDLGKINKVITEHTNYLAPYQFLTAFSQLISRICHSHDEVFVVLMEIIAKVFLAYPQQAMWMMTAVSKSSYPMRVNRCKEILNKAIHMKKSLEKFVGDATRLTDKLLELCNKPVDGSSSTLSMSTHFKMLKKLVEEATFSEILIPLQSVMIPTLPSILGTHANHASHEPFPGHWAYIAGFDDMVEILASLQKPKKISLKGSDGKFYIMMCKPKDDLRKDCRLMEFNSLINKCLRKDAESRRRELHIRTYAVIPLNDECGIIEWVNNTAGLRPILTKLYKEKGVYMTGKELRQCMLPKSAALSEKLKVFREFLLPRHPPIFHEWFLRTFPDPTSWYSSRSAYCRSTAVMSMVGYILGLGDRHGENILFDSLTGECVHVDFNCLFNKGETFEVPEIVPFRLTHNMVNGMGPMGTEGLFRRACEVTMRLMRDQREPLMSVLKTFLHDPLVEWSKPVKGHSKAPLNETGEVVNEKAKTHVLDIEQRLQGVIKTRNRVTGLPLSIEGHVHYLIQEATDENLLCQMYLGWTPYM
Assay type: biochemical
Experimental: Compounds were screened for their ability to inhibit ATR kinase using a radioactive-phosphate incorporation assay. Assays were carried out in a mixture of 50 mM Tris/HCl (pH 7.5), 10 mM MgCl2 and 1 mM DTT. Final substrate concentrations were 10 μM [γ-33P]ATP (3mCi 33P ATP/mmol ATP, Perkin Elmer) and 800 μM target peptide (ASELPASQPQPFSAKKK) (SEQ. ID. NO: 1).
Assays were carried out at 25° C. in the presence of 5 nM full-length ATR. An assay stock buffer solution was prepared containing all of the reagents listed above, with the exception of ATP and the test compound of interest. 13.5 μL of the stock solution was placed in a 96 well plate followed by addition of 2 μL of DMSO stock containing serial dilutions of the test compound (typically starting from a final concentration of 15 μM with 3-fold serial dilutions) in duplicate (final DMSO concentration 7%). The plate was pre-incubated for 10 minutes at 25° C. and the reaction initiated by addition of 15 μL [γ-33P]ATP (final concentration 10 μM).
The reaction was stopped after […] by the addition of 30 μL 0.1M phosphoric acid containing 2 mM ATP. A multiscreen phosphocellulose filter 96-well plate (Millipore, Cat no. MAPHN0B50) was pretreated with 100 μL 0.2M phosphoric acid prior to the addition of 45 μL of the stopped assay mixture. The plate was washed with 5×200 μL 0.2M phosphoric acid. After drying, 100 μL Optiphase ‘SuperMix’ liquid scintillation cocktail (Perkin Elmer) was added to the well prior to scintillation counting (1450 Microbeta Liquid Scintillation Counter, Wallac).
After removing mean background values for all of the data points, Ki(app) data were calculated from non-linear regression analysis of the initial rate data using the Prism software package (GraphPad Prism version 3.0cx for Macintosh, GraphPad Software, San Diego Calif., USA).
Below is a chart showing the ATR Inhibition Ki values of compounds of the disclosure.

Row | Ki [nM] | SMILES
1 | ≤ 50 | CC(C)S(=O)(=O)c1ccc(-c2cnc3[nH]cc(N4Cc5cc(N6CCNCC6)ccc5C4=O)c3n2)cc1 [Compound I-28, 2-(2-(4-(isopropylsulfonyl)phenyl)-5H-pyrrolo[2,3-b]pyrazin-7-yl)-5-(piperazin-1-yl)isoindolin-1-one]
2 | ≤ 50 | CC(C)S(=O)(=O)c1ccc(-c2cnc3[nH]cc(N4Cc5cc(N6CC[C@H](CN)C6)ccc5C4=O)c3n2)cc1 [Compound I-29, (R)-5-(3-(aminomethyl)pyrrolidin-1-yl)-2-(2-(4-(isopropylsulfonyl)phenyl)-5H-pyrrolo[2,3-b]pyrazin-7-yl)isoindolin-1-one]
3 | ≤ 50 | CC(C)S(=O)(=O)c1ccc(-c2cnc3[nH]cc(N4Cc5cc(N6CCCC(N)C6)ccc5C4=O)c3n2)cc1 (stereo not drawn) [Compound I-30, 5-(3-aminopiperidin-1-yl)-2-(2-(4-(isopropylsulfonyl)phenyl)-5H-pyrrolo[2,3-b]pyrazin-7-yl)isoindolin-1-one]
4 | ≤ 50 | CC(C)S(=O)(=O)c1ccc(-c2cnc3[nH]cc(N4Cc5cc(NCCN6CCOCC6)ccc5C4=O)c3n2)cc1 [Compound I-32, 2-(2-(4-(isopropylsulfonyl)phenyl)-5H-pyrrolo[2,3-b]pyrazin-7-yl)-5-((2-morpholinoethyl)amino)isoindolin-1-one]
5 | 50 to 100 | CC(C)S(=O)(=O)c1ccc(-c2cnc3[nH]cc(N4Cc5cc(N6CCC(CN)CC6)ccc5C4=O)c3n2)cc1 [Compound I-33, 5-(4-(aminomethyl)piperidin-1-yl)-2-(2-(4-(isopropylsulfonyl)phenyl)-5H-pyrrolo[2,3-b]pyrazin-7-yl)isoindolin-1-one]
6 | ≤ 50 | CC(C)S(=O)(=O)c1ccc(-c2cnc3[nH]cc(N4Cc5cc(NCCN)ccc5C4=O)c3n2)cc1 [Compound I-34, 5-((2-aminoethyl)amino)-2-(2-(4-(isopropylsulfonyl)phenyl)-5H-pyrrolo[2,3-b]pyrazin-7-yl)isoindolin-1-one]
7 | ≤ 50 | CC(C)S(=O)(=O)c1ccc(-c2cnc3[nH]cc(N4Cc5cc(N6CC[C@@H](CN)C6)ccc5C4=O)c3n2)cc1 [Compound I-35, (S)-5-(3-(aminomethyl)pyrrolidin-1-yl)-2-(2-(4-(isopropylsulfonyl)phenyl)-5H-pyrrolo[2,3-b]pyrazin-7-yl)isoindolin-1-one]
8 | ≤ 50 | CC(C)S(=O)(=O)c1ccc(-c2cnc3[nH]cc(N4Cc5cc(N(C)CCCN(C)C)ccc5C4=O)c3n2)cc1 [Compound I-36, 5-((3-(dimethylamino)propyl)(methyl)amino)-2-(2-(4-(isopropylsulfonyl)phenyl)-5H-pyrrolo[2,3-b]pyrazin-7-yl)isoindolin-1-one]
9 | ≤ 50 | CC(C)S(=O)(=O)c1ccc(-c2cnc3[nH]cc(N4Cc5cc(N6CCC(N(C)C)CC6)ccc5C4=O)c3n2)cc1 [Compound I-37, 5-(4-(dimethylamino)piperidin-1-yl)-2-(2-(4-(isopropylsulfonyl)phenyl)-5H-pyrrolo[2,3-b]pyrazin-7-yl)isoindolin-1-one]
10 | ≤ 50 | CC(C)S(=O)(=O)c1ccc(-c2cnc3[nH]cc(N4Cc5cc(N6CCCNCC6)ccc5C4=O)c3n2)cc1 [Compound I-38, 5-(1,4-diazepan-1-yl)-2-(2-(4-(isopropylsulfonyl)phenyl)-5H-pyrrolo[2,3-b]pyrazin-7-yl)isoindolin-1-one]
11 | ≤ 50 | CC(C)S(=O)(=O)c1ccc(-c2cnc3[nH]cc(N4Cc5cc(NC6CNC6)ccc5C4=O)c3n2)cc1 [Compound I-39, 5-(azetidin-3-ylamino)-2-(2-(4-(isopropylsulfonyl)phenyl)-5H-pyrrolo[2,3-b]pyrazin-7-yl)isoindolin-1-one]
12 | ≤ 50 | CC(C)S(=O)(=O)c1ccc(-c2cnc3[nH]cc(N4Cc5cc(NCC6CCCNC6)ccc5C4=O)c3n2)cc1 (stereo not drawn) [Compound I-40, 2-(2-(4-(isopropylsulfonyl)phenyl)-5H-pyrrolo[2,3-b]pyrazin-7-yl)-5-((piperidin-3-ylmethyl)amino)isoindolin-1-one]
13 | ≤ 50 | CC(C)S(=O)(=O)c1ccc(-c2cnc3[nH]cc(N4Cc5cc(N6CC[C@H](N)C6)ccc5C4=O)c3n2)cc1 [Compound I-41, (S)-5-(3-aminopyrrolidin-1-yl)-2-(2-(4-(isopropylsulfonyl)phenyl)-5H-pyrrolo[2,3-b]pyrazin-7-yl)isoindolin-1-one]
14 | ≤ 50 | CC(C)S(=O)(=O)c1ccc(-c2cnc3[nH]cc(N4Cc5cc(N6CC[C@@H](N)C6)ccc5C4=O)c3n2)cc1 [Compound I-42, (R)-5-(3-aminopyrrolidin-1-yl)-2-(2-(4-(isopropylsulfonyl)phenyl)-5H-pyrrolo[2,3-b]pyrazin-7-yl)isoindolin-1-one]
15 | ≤ 50 | CC(C)S(=O)(=O)c1ccc(-c2cnc3[nH]cc(N4Cc5cc(-c6ccn[nH]6)ccc5C4=O)c3n2)cc1 [Compound I-43, 2-(2-(4-(isopropylsulfonyl)phenyl)-5H-pyrrolo[2,3-b]pyrazin-7-yl)-5-(1H-pyrazol-5-yl)isoindolin-1-one]
16 | 50 to 100 | CNc1cccc2c1C(=O)N(c1c[nH]c3ncc(-c4ccc(S(=O)(=O)C(C)C)cc4)nc13)C2 [Compound I-44, 2-(2-(4-(isopropylsulfonyl)phenyl)-5H-pyrrolo[2,3-b]pyrazin-7-yl)-7-(methylamino)isoindolin-1-one]
17 | ≤ 50 | CC(C)S(=O)(=O)c1ccc(-c2cnc3[nH]cc(N4Cc5cccc(N(C)C)c5C4=O)c3n2)cc1 [Compound I-45, 7-(dimethylamino)-2-(2-(4-(isopropylsulfonyl)phenyl)-5H-pyrrolo[2,3-b]pyrazin-7-yl)isoindolin-1-one]
18 | ≤ 50 | CC(C)S(=O)(=O)c1ccc(-c2cnc3[nH]cc(N4Cc5ccc(OCCN(C)C)cc5C4=O)c3n2)cc1 [Compound I-46, 6-(2-(dimethylamino)ethoxy)-2-(2-(4-(isopropylsulfonyl)phenyl)-5H-pyrrolo[2,3-b]pyrazin-7-yl)isoindolin-1-one]
19 | ≤ 50 | CC(C)S(=O)(=O)c1ccc(-c2cnc3[nH]cc(N4Cc5cc(OCCN(C)C)ccc5C4=O)c3n2)cc1 [Compound I-47, 5-(2-(dimethylamino)ethoxy)-2-(2-(4-(isopropylsulfonyl)phenyl)-5H-pyrrolo[2,3-b]pyrazin-7-yl)isoindolin-1-one]
20 | ≤ 50 | CC(C)S(=O)(=O)c1ccc(-c2cnc3[nH]cc(N4C(=O)c5ccccc5C4CCO)c3n2)cc1 (stereo not drawn) [Compound I-48, 3-(2-hydroxyethyl)-2-(2-(4-(isopropylsulfonyl)phenyl)-5H-pyrrolo[2,3-b]pyrazin-7-yl)isoindolin-1-one]

Row | SMILES | Ki [nM]
21 | CC(C)S(=O)(=O)c1ccc(-c2cnc3[nH]cc(N4Cc5cc(N(C)C6CCNCC6)ccc5C4=O)c3n2)cc1 [Compound I-31, 2-(2-(4-(isopropylsulfonyl)phenyl)-5H-pyrrolo[2,3-b]pyrazin-7-yl)-5-(methyl(piperidin-4-yl)amino)isoindolin-1-one] | ≤ 50
